Experimental data: patent publication US20240025875A1, “A COMPOUND AS A THYROID HORMONE BETA RECEPTOR AGONIST AND USE THEREOF” (SUNSHINE LAKE PHARMA CO., LTD., priority 2020, published 2024)

Experiments:
TRβ = biological target: T1, TRβ (Homo sapiens, UniProt P10828); assay: LanthaScreen TR-FRET Thyroid Receptor beta Coactivator Assay (in vitro binding activity); conditions: TR beta-LBD
T1 construct: 5 μL of 4×TR beta/alfa-LBD; purchased Invitrogen PV4686
T1 sequence (P10828 217-461 limits assumed): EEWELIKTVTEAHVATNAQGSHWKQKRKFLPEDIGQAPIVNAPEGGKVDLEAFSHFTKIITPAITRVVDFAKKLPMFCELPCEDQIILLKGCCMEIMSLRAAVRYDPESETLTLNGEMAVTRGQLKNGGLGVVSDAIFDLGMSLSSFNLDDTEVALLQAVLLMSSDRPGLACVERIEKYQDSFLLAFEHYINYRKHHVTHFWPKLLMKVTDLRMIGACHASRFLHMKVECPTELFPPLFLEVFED
Experimental: (§1) 2. Detection of the Binding Activity of the Compound of the Present Invention to TRα or TRβ In Vitro
(§2) Test Materials • LanthaScreen TR-FRET Thyroid Receptor beta Coactivator Assay kit was purchased from Invitrogen, Cat. No. PV4686; • LanthaScreen TR-FRET Thyroid Receptor alfa Coactivator Assay kit was purchased from Invitrogen, Cat. No. PV4687.
(§3) The method was experimented with LanthaScreen TR-FRET Thyroid Receptor beta/alfa Coactivator Assay kit. The test compound was dissolved in DMSO and diluted 3 times to a total of 10 concentrations, and then diluted with TR-FRET Coregulator Buffer C in the kit to form a solution containing 2% DMSO, 10 μL of the solution containing 2% DMSO was taken into a 384-well plate, then 5 μL of 4×TR beta/alfa-LBD, 5 μL of a mixture containing 0.4 μM fluorescein-SRC2-2 and 8 nM Tb anti-GST antibody were added into each well, mixed thoroughly, and incubated at room temperature for 1 h in the dark. After 1 h, BMG LABTECH's PHERAstar FSX microplate reader was used to read the fluorescence value (RFU) at […]. The TR-FRET ratio was calculated by dividing the emission signal at 520 nm by the emission signal at 495 nm. Graph Pad Prism 5 software was used to draw the curve and calculate the EC50 value. The in vitro binding activity test results of some of the compounds of the examples of the present invention are shown in Table 1 below.

TRα = biological target: T2, TRα (Homo sapiens, UniProt P10827); assay: LanthaScreen TR-FRET Thyroid Receptor alfa Coactivator Assay (in vitro binding activity); conditions: TR alfa-LBD
T2 construct: 5 μL of 4×TR beta/alfa-LBD; purchased Invitrogen PV4687
Experimental: as §1, §2, §3

T2 sequence (P10827 163-410 isoform P10827-2 limits assumed, other chains not shown): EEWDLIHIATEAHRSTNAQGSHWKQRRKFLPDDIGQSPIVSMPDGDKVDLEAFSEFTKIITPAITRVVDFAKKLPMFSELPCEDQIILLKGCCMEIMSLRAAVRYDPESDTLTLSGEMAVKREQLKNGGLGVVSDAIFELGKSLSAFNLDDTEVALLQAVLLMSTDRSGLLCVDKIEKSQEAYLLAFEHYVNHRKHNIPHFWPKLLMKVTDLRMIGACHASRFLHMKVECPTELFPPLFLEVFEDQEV

Compound	EC50 (TRβ)	EC50 (TRα)
O=C1c2ccc(Oc3c(Cl)cc(-n4ncc(=O)[nH]c4=O)cc3Cl)cc2CCN1c1nccs1 [Example 52, 2-(3,5-dichloro-4-((1-oxo-2-(thiazol-2-yl)-1,2,3,4-tetrahydroisoquinolin-6-yl)oxy)phenyl)-1,2,4-triazine-3,5(2H,4H)-dione]	0.016 µM	0.23 µM
O=C1NCCc2cc(Oc3c(Cl)cc(-n4ncc(=O)[nH]c4=O)cc3Cl)ccc21 [Example 17, 2-(3,5-Dichloro-4-((1-oxo-1,2,3,4-tetrahydroisoquinolin-6-yl)oxy)phenyl)-1,2,4-triazine-3,5(2H,4H)-dione]	0.034 µM	0.311 µM
N#Cc1nn(-c2cc(Cl)c(Oc3ccc4c(c3)CCN(Cc3ccccc3F)C4=O)c(Cl)c2)c(=O)[nH]c1=O [Example 33d, 2-(3,5-Dichloro-4-((2-(2-fluorobenzyl)-1-oxo-1,2,3,4-tetrahydroisoquinolin-6-yl)oxy)phenyl)-3,5-dioxo-2,3,4,5-tetrahydro-1,2,4-triazine-6-carbonitrile]	0.11 µM	> 100 µM
O=C1c2ccc(Oc3c(Cl)cc(-n4ncc(=O)[nH]c4=O)cc3Cl)cc2CCN1Cc1ccc(F)c(F)c1 [Example 30, 2-(3,5-dichloro-4-((2-(3,4-difluorobenzyl)-1-oxo-1,2,3,4-tetrahydroisoquinolin-6-yl)oxy)phenyl)-1,2,4-triazine-3,5(2H,4H)-dione]	0.0062 µM	0.093 µM
CCOCN1CCc2cc(Oc3c(Cl)cc(-n4nc(C#N)c(=O)[nH]c4=O)cc3Cl)ccc2C1=O [Example 4, 2-(3,5-dichloro-4-((2-(ethoxymethyl)-1-oxo-1,2,3,4-tetrahydroisoquinolin-6-yl)oxy)phenyl)-3,5-dioxo-2,3,4,5-tetrahydro-1,2,4-triazine-6-carbonitrile]	0.018 µM	0.21 µM
N#Cc1nn(-c2cc(Cl)c(Oc3ccc4c(c3)CCN(c3ncccn3)C4=O)c(Cl)c2)c(=O)[nH]c1=O [Example 50f, 2-(3,5-dichloro-4-((1-oxo-2-(pyrimidin-2-yl)-1,2,3,4-tetrahydroisoquinolin-6-yl)oxy)phenyl)-3,5-dioxo-2,3,4,5-tetrahydro-1,2,4-triazine-6-carbonitrile]	0.213 µM	2.62 µM
CCOC(C)N1CCc2cc(Oc3c(Cl)cc(-n4nc(C#N)c(=O)[nH]c4=O)cc3Cl)ccc2C1=O (centres unmarked) [Example 16, 2-(3,5-dichloro-4-((2-(1-ethoxyethyl)-1-oxo-1,2,3,4-tetrahydroisoquinolin-yl)oxy)phenyl)-3,5-dioxo-2,3,4,5-tetrahydro-1,2,4-triazine-6-carbonitrile]	0.022 µM	0.211 µM
N#Cc1nn(-c2cc(Cl)c(Oc3ccc4c(c3)CCN(C=O)C4=O)c(Cl)c2)c(=O)[nH]c1=O [Example 51, 2-(3,5-dichloro-4-((2-formyl-1-oxo-1,2,3,4-tetrahydroisoquinolin-6-yl)oxy)phenyl)-3,5-dioxo-2,3,4,5-tetrahydro-1,2,4-triazine-6-carbonitrile]	0.904 µM	> 100 µM
CN1CCc2cc(Oc3c(Cl)cc(-n4nc(C#N)c(=O)[nH]c4=O)cc3Cl)ccc2C1=O [Example 2, 2-(3,5-dichloro-4-((2-methyl-1-oxo-1,2,3,4-tetrahydroisoquinolin-6-yl)oxy)phenyl)-3,5-dioxo-2,3,4,5-tetrahydro-1,2,4-triazine-6-carbonitrile]	0.1 µM	1.47 µM
CC(C)OCN1CCc2cc(Oc3c(Cl)cc(-n4nc(C#N)c(=O)[nH]c4=O)cc3Cl)ccc2C1=O [Example 13, 2-(3,5-Dichloro-4-((2-(isopropoxymethyl)-1-oxo-1,2,3,4-tetrahydroisoquinolin-6-yl)oxy)phenyl)-3,5-dioxo-2,3,4,5-tetrahydro-1,2,4-triazine-6-carbonitrile]	0.013 µM	0.073 µM
